# In patent US20250026748A1, “N-(5-SUBSTITUTED-[(1,3,4-THIADIAZOLYL) OR (THIAZOLYL)])(SUBSTITUTED)CARBOXAMIDE COMPOUNDS AND USE THEREOF FOR INHIBITING HUMAN POLYMERASE THETA” (Repare Therapeutics Inc., priority 2021, published 2025):
# Target: PolQ ATPase enzyme (1-894) (Homo sapiens (Human), UniProt O75417)
# Assay: Polθ ATPase enzymatic assay (0.5 nM enzyme concentration), ADP-Glo
# Assay type: biochemical
# Settings: average IC50; 0.5 nM PolQ ATPase enzyme (1-894)
# Description: PolQ ATPase enzyme (1-894) at 0.5 nM is incubated with a 10-point concentration response of inhibitors for 15 min at rt in the following buffer: 50 mM Tris Cl pH 7.5, 10% glycerol, 5 mM DTT, 10 mM MgCl2, 0.1 mg/ml BSA. Following pre-incubation with inhibitors, DNA (Fork C) at 20 nM and ATP at 100 μM are added to start the reaction. Enzymatic reaction proceeds at rt for 180 min ATP consumption is measured using the ADP-Glo assay from Promega. Luminescence is read on the Envision and IC50 are determined using the variable slope 4-parameters equation.
# Oligos are annealed by heating at 9500 for 5 min in the following buffer (10 mM Tris-HCl pH7.5, 50 mM NaCl, 1 mM EDTA) and cooled to rt. […]
# Chain of PolQ ATPase enzyme (1-894) (O75417 1-894): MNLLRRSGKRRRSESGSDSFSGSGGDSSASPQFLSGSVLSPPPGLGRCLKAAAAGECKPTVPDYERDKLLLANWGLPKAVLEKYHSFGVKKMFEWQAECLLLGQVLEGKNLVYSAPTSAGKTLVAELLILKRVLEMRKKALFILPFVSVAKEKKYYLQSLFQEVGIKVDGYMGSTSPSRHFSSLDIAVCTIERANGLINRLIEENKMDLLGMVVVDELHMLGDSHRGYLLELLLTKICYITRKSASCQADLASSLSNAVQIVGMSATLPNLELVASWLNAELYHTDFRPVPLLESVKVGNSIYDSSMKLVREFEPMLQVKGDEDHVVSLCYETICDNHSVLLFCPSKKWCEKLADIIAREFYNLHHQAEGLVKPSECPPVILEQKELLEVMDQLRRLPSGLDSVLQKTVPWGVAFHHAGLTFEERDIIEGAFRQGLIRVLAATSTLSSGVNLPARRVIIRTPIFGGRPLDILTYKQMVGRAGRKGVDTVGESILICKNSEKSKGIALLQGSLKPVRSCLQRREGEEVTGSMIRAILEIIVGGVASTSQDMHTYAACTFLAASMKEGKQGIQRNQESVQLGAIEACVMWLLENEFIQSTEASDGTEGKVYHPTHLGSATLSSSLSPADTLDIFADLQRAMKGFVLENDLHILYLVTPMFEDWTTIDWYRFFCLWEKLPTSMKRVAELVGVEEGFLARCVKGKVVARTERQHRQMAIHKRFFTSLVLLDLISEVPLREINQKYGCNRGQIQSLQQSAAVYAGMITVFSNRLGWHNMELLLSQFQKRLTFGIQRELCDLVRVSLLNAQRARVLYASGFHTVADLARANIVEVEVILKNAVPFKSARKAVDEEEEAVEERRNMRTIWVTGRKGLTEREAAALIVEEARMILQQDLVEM
row,SMILES,IC50
1,C#C[C@H]1C[C@@H]1c1nnc(NC(=O)c2cnc(CC#N)cc2-c2cc(C(F)F)ncc2OC)s1 [Compound 190],5.8 nM
2,C#Cc1cc(-c2cc(C(F)F)ncc2OC)c(C(=O)Nc2nnc(C#CC3CC3)s2)cn1 [Compound 269],0.38 nM
3,COc1cnc(Cl)nc1-c1cn(C)c(=O)cc1C(=O)Nc1nnc(C#CC2CC2)s1 [Compound 335],4.3 nM
4,COc1cnc(Cl)cc1-c1cc(CS(C)(=O)=O)ccc1C(=O)Nc1nnc(C#CC2CC2)s1 [Compound 310],4.4 nM
5,[2H]C([2H])([2H])N(C(=O)C1CC(C)(O)C1)c1ccc(C(=O)Nc2nnc(C#CC3CC3)s2)c(-c2cc(C(F)F)ncc2OC)c1 (centres unmarked) [Compound 224],0.35 nM
6,COc1cnc(C(F)F)cc1-c1cc(-c2ccncn2)ncc1C(=O)Nc1nnc(C#CC2CC2)s1 [Compound 135],< 0.25 nM
7,COc1cnc(C(F)F)cc1-c1cc(N2CCCOC2=O)ncc1C(=O)Nc1nnc(C#CC2CC2)s1 [Compound 167],< 0.25 nM
8,COc1cnc(C(F)F)cc1-c1cc(-n2ccnc2)ncc1C(=O)Nc1nnc(C#CC2CC2)s1 [Compound 262],0.29 nM
9,COc1cnc(C(F)F)cc1-c1cc(N2CCCC(F)C2=O)ncc1C(=O)Nc1nnc(C#CC2CC2)s1 (centres unmarked) [Compound 352],< 0.25 nM
10,COc1cnc(C(F)F)cc1-c1cc(-c2nnc(C)o2)ccc1C(=O)Nc1nnc(C2C[C@H]2c2ccc(C#N)cc2)s1 (some centres unmarked) [Compound 168],0.34 nM
11,COc1cnc(C(F)F)cc1-c1cc(N(C)C(C)=O)ccc1C(=O)Nc1nnc(C#CC2CC2)s1 [Compound 276],< 0.25 nM
12,COc1cnc(C(F)F)cc1-c1cc(N2CC3(COC3)CC2=O)ncc1C(=O)Nc1nnc(C#CC2CC2)s1 [Compound 359],1.7 nM
13,COc1cnc(Cl)cc1-c1cn(Cc2csc(C)n2)c(=O)cc1C(=O)Nc1nnc(C#CC2CC2)s1 [Compound 332],15 nM
14,COc1cnc(C(F)F)cc1-c1cc(C2CCOCC2)ncc1C(=O)Nc1nnc(C#CC2CC2)s1 [Compound 270],9.9 nM
15,"Cc1nnc(Cn2cc(-c3cc(C(F)(F)F)ccc3Cl)c(C(=O)Nc3ncc(C#CC4CC4)s3)cc2=O)o1 [Compound 115, 5-(2-chloro-5-(trifluoromethyl)phenyl)-N-(5-(cyclopropylethynyl)thiazol-2-yl)-1-((5-methyl-1,3,4-oxadiazol-2-yl)methyl)-2-oxo-1,2-dihydropyridine-4-carboxamide]",< 0.25 nM
16,COc1cnc(C(F)F)cc1-c1cc(C2CCN(C)C2=O)ccc1C(=O)Nc1nnc(C#CC2CC2)s1 (centres unmarked) [Compound 282],0.26 nM
17,COc1cnc(C(F)F)cc1-c1cc(N(C)C(=O)C2(C)COC2)ccc1C(=O)Nc1nnc(C#CC2CC2)s1 [Compound 220],0.78 nM
18,COc1cnc(C(F)F)cc1-c1cc(-c2nccn2C)ncc1C(=O)Nc1nnc(C#CC2CC2)s1 [Compound 404],< 0.25 nM
19,COC(=O)N1CCN(c2ccc(C(=O)Nc3nnc(C#CC4CC4)s3)c(-c3cc(C(F)F)ncc3OC)c2)C(=O)C1 [Compound 123],< 0.25 nM
20,COc1cnc(C(F)F)cc1-c1cc(CC(=O)N(C)C)ccc1C(=O)Nc1nnc(C#CC2CC2)s1 [Compound 265],< 0.25 nM
21,COc1cnc(C(F)F)cc1-c1cc(N2CCN(C)C(C)(C)C2=O)ncc1C(=O)Nc1nnc(C#CC2CC2)s1 [Compound 367],0.27 nM

row,SMILES,IC50
1,COc1cnc(C(F)F)cc1-c1cc(-n2nccc(C)c2=O)ncc1C(=O)Nc1nnc(C#CC2CC2)s1 [Compound 453],< 0.25 nM
2,COc1cnc(Cl)cc1-c1cn(CC(=O)N(C)C)c(=O)cc1C(=O)Nc1nnc(C#CC2CC2)s1 [Compound 99],0.36 nM
3,Cc1cnc(C(F)F)cc1-c1cnccc1C(=O)Nc1nnc(C#CC2CC2)s1 [Compound 279],1.5 nM
4,COc1cnc(Cl)cc1-c1cn2cc(C(=O)N(C)C)nc2cc1C(=O)Nc1nnc(C#CC2CC2)s1 [Compound 314],0.49 nM
5,COc1ccc(C(F)(F)F)cc1-c1cnccc1C(=O)Nc1nnc(C2CC2c2ccc(C#N)cc2)s1 (centres unmarked) [Compound 30],0.76 nM
6,[2H]C([2H])([2H])Oc1cnc(C(F)F)cc1-c1cc(-c2ccn(C)n2)ncc1C(=O)Nc1nnc(C#CC2CC2)s1 [Compound 375],< 0.25 nM
7,COc1cnc(C(F)F)cc1-c1cc(-n2ncc(C)cc2=O)ncc1C(=O)Nc1nnc(C#CC2CC2)s1 [Compound 435],< 0.25 nM
8,"COc1cnc(C(F)F)cc1-c1cc(N2CC3(C2)CC(C)(O)C3)ncc1C(=O)Nc1nnc(C#CC2CC2)s1 [Compound 130, N-(5-(cyclopropylethynyl)-1,3,4-thiadiazol-2-yl)-2′-(difluoromethyl)-6-(6-hydroxy-6-methyl-2-azaspiro[3.3]heptan-2-yl)-5′-methoxy-[4 4′-bipyridine]-3-carboxamide]",2.1 nM
9,COc1cnc(C(F)F)cc1-c1cc(N2C(=O)CCC2=O)ccc1C(=O)Nc1nnc(C#CC2CC2)s1 [Compound 216],1.5 nM
10,COc1cnc(C(F)F)cc1-c1cnccc1C(=O)Nc1nnc([C@@H]2C[C@H]2c2ccc(C#N)cc2)s1 [Compound 303],1.1 nM
11,COc1cnc(Cl)cc1-c1cnccc1C(=O)Nc1nnc(C2C[C@H]2c2ccc(C#N)cc2O)s1 (some centres unmarked) [Compound 273],1.8 nM
12,COc1cnc(C(F)F)cc1-c1cc(N2CC3(COC3)C2)ncc1C(=O)Nc1nnc(C#CC2CC2)s1 [Compound 162],13 nM
13,COc1cnc(C(F)F)cc1-c1cc(N(C)c2nnc(C)o2)ccc1C(=O)Nc1ncc(C#CC2CC2)s1 [Compound 119],23 nM
14,COc1ccc(Cl)nc1-c1cnccc1C(=O)Nc1nnc(C#CC2CC2)s1 [Compound 339],3.4 nM
15,COc1cnc(C(F)F)cc1-c1cc(CC#N)ncc1C(=O)Nc1nnc(C#CC2CC2)s1 [Compound 226],0.61 nM
16,COc1cnc(C(F)F)cc1-c1cc(-n2ncccc2=O)ncc1C(=O)Nc1nnc(C#CC2CC2)s1 [Compound 421],< 0.25 nM
17,COc1ccn(-c2cc(-c3cc(C(F)F)ncc3OC)c(C(=O)Nc3nnc(C#CC4CC4)s3)cn2)c(=O)c1 [Compound 434],< 0.25 nM
18,COc1cnc(C(F)F)cc1-c1cc(N2CCNCC2=O)ccc1C(=O)Nc1nnc(C#CC2CC2)s1 [Compound 143],< 0.25 nM
19,[2H]C([2H])([2H])N(C(C)=O)c1ccc(C(=O)Nc2nnc(C#CC3CC3)s2)c(-c2cc(C(F)F)ncc2OC)c1 [Compound 232],< 0.25 nM
20,COc1cnc(C(F)F)cc1-c1cc(C#CCN2CCS(=O)(=O)CC2)ccc1C(=O)Nc1nnc(C#CC2CC2)s1 [Compound 242],0.35 nM
21,COc1cnc(C(F)F)cc1-c1cc(-c2oc(C)nc2C)ncc1C(=O)Nc1nnc(C#CC2CC2)s1 [Compound 409],< 0.25 nM

row,SMILES,IC50
1,COc1cnc(C(F)F)cc1-c1cc(CC#N)ccc1C(=O)Nc1ncc(C#CC2CC2)s1 [Compound 193],2.5 nM
2,COc1cnc(C(F)F)cc1-c1cc(C#CC2(O)CCS(=O)(=O)CC2)ccc1C(=O)Nc1ncc(C#CC2CC2)s1 [Compound 238],3.6 nM
3,COc1cnc(C(F)F)cc1-c1cc(-c2nnc(N(C)C)o2)ccc1C(=O)Nc1nnc(C#CC2CC2)s1 [Compound 408],1.4 nM
4,COc1cnc(C(F)F)cc1-c1cc(-c2cnn(S(C)(=O)=O)c2)ncc1C(=O)Nc1nnc(C#CC2CC2)s1 [Compound 393],< 0.25 nM
5,COc1cnn(-c2cc(-c3cc(C(F)F)ncc3OC)c(C(=O)Nc3nnc(C#CC4CC4)s3)cn2)c(=O)c1 [Compound 420],0.31 nM
6,COc1cnc(C(F)F)cc1-c1cc(N(C)C#N)ccc1C(=O)Nc1nnc(C#CC2CC2)s1 [Compound 203],2.9 nM
7,"COc1cnc(C(F)F)cc1-c1cc(-c2cc[nH]n2)ncc1C(=O)Nc1nnc(C#CC2CC2)s1 [Compound 145, N-(5-(cyclopropylethynyl)-1,3,4-thiadiazol-2-yl)-2′-(difluoromethyl)-5′-methoxy-6-(1H-pyrazol-3-yl)-[4,4′-bipyridine]-3-carboxamide]",< 0.25 nM
8,COc1cnc(C(F)F)cc1-c1cc(N2CC3CC(C3)C2=O)ncc1C(=O)Nc1nnc(C#CC2CC2)s1 [Compound 381],< 0.25 nM
9,O=C(Nc1nnc(C#CC2CC2)s1)c1cc(=O)n(Cc2nccs2)cc1-c1cc(C(F)(F)F)ccc1Cl [Compound 65],2.2 nM
10,COc1ccc(C(F)(F)F)nc1-c1cnccc1C(=O)Nc1nnc(C#CC2CC2)s1 [Compound 329],4.1 nM
11,COc1ccc(C(F)F)cc1-c1cc(C#N)ncc1C(=O)Nc1nnc(C#CC2CC2)s1 [Compound 321],0.41 nM
12,O=C(Nc1nnc(C#CC2CC2)s1)c1cnc(-n2ccccc2=O)cc1-c1cc(C(F)F)ncc1Cl [Compound 403],< 0.25 nM
13,NC(=O)Cn1cc(-c2cc(Cl)ncc2OC(F)F)c(C(=O)Nc2nnc(C#CC3CC3)s2)cc1=O [Compound 76],< 0.25 nM
14,COc1cnc(C(F)F)cc1-c1cc(Cl)ncc1C(=O)Nc1ncc(C#CC2CC2)s1 [Compound 289],0.88 nM
15,COc1cnc(C(F)F)cc1-c1cn(C)c(=O)cc1C(=O)Nc1nnc(C#CC2CC23CC3)s1 (centres unmarked) [Compound 49],0.75 nM
16,COc1ccc(C(F)(F)F)nc1-c1cn(CC(=O)N(C)C)c(=O)cc1C(=O)Nc1nnc(C#CC2CC2)s1 [Compound 51],2.1 nM
17,COc1ccc(C(F)F)cc1-c1cc(C(=O)N(C)C)ncc1C(=O)Nc1nnc(C#CC2CC2)s1 [Compound 293],< 0.25 nM
18,COc1cnc(C(F)F)cc1-c1cc(Oc2nccs2)ccc1C(=O)Nc1nnc(C#CC2CC2)s1 [Compound 301],< 0.25 nM
19,COc1cnc(C(F)F)cc1-c1cc(N2CCCCCC2=O)ncc1C(=O)Nc1nnc(C#CC2CC2)s1 [Compound 394],< 0.25 nM
20,COc1cnc(C(F)F)cc1-c1cc(N2CCCC(C)C2=O)ncc1C(=O)Nc1nnc(C#CC2CC2)s1 (centres unmarked) [Compound 390],< 0.25 nM
